According to PMC9833666, “Designing and identifying β-hairpin peptide macrocycles with antibiotic potential” (Science Advances, 2023):
Like-named read-outs stand apart in the source and are kept apart here. Bridge positions count the residues as written; N and C are the ends. Ends that are not written are not given here. Peptide text beside a SMILES is read from it.

Columns and labels:
Escherichia coli W3110 = type: cell-based; conditions: for Ec W3110 MIC MH: E. coli W3110, MH medium; for Ec W3110 MIC RPMI: E. coli W3110, RPMI medium
[1] = test system: Single-donor human red blood cells; experiment: Hemolysis assay; type: cell-based
Method: Single-donor human red blood cells (Innovative Research, no. IWB3ALS) were washed in PBS and adjusted to a concentration of 1 × 10^9 cells/ml. Each peptide was added individually to 200 μl of cells at a concentration of either 300 μg/ml (SySA library) or 128 μg/ml (SySA-5 optimization library) in a 96-well polypropylene plate (Corning, 3879). PBS alone and 1% Triton X-100 were used for background normalization and 100% hemolysis, respectively. Each reaction was set up in triplicate. Plates were incubated for 3 hours at 37°C. Following incubation, samples were centrifuged at 800g for 20 min, and 100 μl of supernatant was transferred to a flat-bottom 96-well plate (Genesse, 25-104). Percent hemolysis for each sample was determined by normalizing the absorbance at 540 nm for each sample to the average background and dividing by the average absorbance for 1% Triton X-100 (100% hemolysis). Error bars represent 1 SD of triplicate samples.

| Compound | Ec W3110 MIC MH (Escherichia coli W3110) [µg/mL] | Ec W3110 MIC RPMI (Escherichia coli W3110) [µg/mL] | hemolysis [1] [%] | other results |
| --- | --- | --- | --- | --- |
| CC[C@H](C)[C@@H]1NC(=O)[C@H](CC(N)=O)NC(=O)[C@H](C(C)C)NC(=O)[C@H](CCCNC(=N)N)NC(=O)[C@H](C(C)C)NC(=O)[C@H](CCCNC(=N)N)NC(=O)[C@@H](N)CSSC[C@@H](C(=O)O)NC(=O)[C@H](CCC(N)=O)NC(=O)[C@H](CC(C)C)NC(=O)[C@H](CCC(N)=O)NC(=O)[C@H](CC(C)C)NC(=O)[C@H](CCCNC(=N)N)NC(=O)[C@H](CC(C)C)NC(=O)[C@H]([C@@H](C)O)NC(=O)[C@H](CCCNC(=N)N)NC(=O)[C@H](CO)NC(=O)[C@H](CCCNC(=N)N)NC(=O)[C@H](CC(N)=O)NC(=O)[C@H](CC(=O)O)NC1=O [SyPA-7] (H-CRVRVNIDNRSRTLRLQLQC-OH; disulfide 1-20) | – | – | – | W3110 MIC (Escherichia coli W3110; W3110): >128 µg/mL; %Hemo [1]: 1.48% |
| CC[C@H](C)[C@@H]1NC(=O)[C@H](CCCNC(=N)N)NC(=O)[C@H](CC(C)C)NC(=O)[C@H](CCCNC(=N)N)NC(=O)CNC(=O)[C@H](CCCNC(=N)N)NC(=O)[C@H](CCCNC(=N)N)NC(=O)[C@H](CC(=O)O)NC(=O)[C@H](CC(=O)O)NC(=O)[C@H](CC(C)C)NC(=O)[C@H](CCCNC(=N)N)NC(=O)[C@H](C(C)C)NC(=O)[C@H](CCCNC(=N)N)NC(=O)[C@H](CC(C)C)NC(=O)[C@@H](N)CSSC[C@@H](C(=O)O)NC(=O)[C@H](C(C)C)NC(=O)[C@H](CCC(N)=O)NC(=O)[C@H](CC(C)C)NC(=O)[C@H](CO)NC1=O [SyPA-9] (H-CLRVRLDDRRGRLRISLQVC-OH; disulfide 1-20) | – | – | – | W3110 MIC (Escherichia coli W3110; W3110): 64 µg/mL; %Hemo [1]: 11.36% |
| CC(C)C[C@@H]1NC(=O)[C@H](CCCNC(=N)N)NC(=O)[C@H](C(C)C)NC(=O)[C@H](CCCNC(=N)N)NC(=O)[C@H](C(C)C)NC(=O)[C@@H](N)CSSC[C@@H](C(=O)O)NC(=O)[C@H](C(C)C)NC(=O)[C@H](CCC(N)=O)NC(=O)[C@H](C(C)C)NC(=O)[C@H](CO)NC(=O)[C@H](C(C)C)NC(=O)[C@H](CCCNC(=N)N)NC(=O)[C@H](C(C)C)NC(=O)[C@H](CCCNC(=N)N)NC(=O)[C@H](CCCNC(=N)N)NC(=O)[C@H](CCCNC(=N)N)NC(=O)[C@H](CCCNC(=N)N)NC(=O)[C@H](CC(N)=O)NC(=O)[C@H](CC(N)=O)NC1=O [SyPA-10] (H-CVRVRLNNRRRRVRVSVQVC-OH; disulfide 1-20) | – | – | – | W3110 MIC (Escherichia coli W3110; SyPA peptides, MH, replicate 2): 16 µg/mL; W3110 MIC (Escherichia coli W3110; SyPA peptides, MH, replicate 3): 16 µg/mL; %Hemo ([1]; SyPA peptides, human red blood cells, 3 h 37°C, relative to 1% Triton X-100, peptide concentration not stated for SyPA, n=3): 1.99% |
| NC[C@H]1O[C@H](O[C@H]2[C@H](O)[C@@H](O[C@H]3O[C@H](CO)[C@@H](O)[C@H](N)[C@H]3O)[C@H](N)C[C@@H]2N)[C@H](O)[C@@H](O)[C@@H]1O [kanamycin, reference compound] | 1 | – | – | W3110 MIC MHII (Escherichia coli W3110; E. coli W3110, MHII medium): 2 µg/mL; fold increase in MHII MIC relative to standard MH (Escherichia coli W3110; cation-adjusted MH (MHII) vs standard MH): twofold; Hemolysis (%) ([1]; human red blood cells 1x10^9 cells/ml, peptide 300 μg/ml, 3 h 37°C, relative to 1% Triton X-100, A540, ± 1 SD, n=3): 0.1 ± 0.03%; hemolysis ([1]; human red blood cells, st dev in separate column): 0.0147% |
| CLRIRLNNRGRGVKVSVEVC (disulfide 1-20 (inferred)) [SySA-46] | > 256 | > 256 | 0.47 | – |
| CLRIRLNNRRSRVRISVEVC (disulfide 1-20 (inferred)) [SySA-52] | > 256 | > 256 | 9.99 | – |
| CLRIRVDNRGSGVKVTLEVC (disulfide 1-20 (inferred)) [SySA-57] | > 256 | > 256 | 0.25 | – |
| CLRIRVNNRGSGLRISVEVC (disulfide 1-20 (inferred)) [SySA-22] | > 256 | > 256 | 0.48 | – |
| CLRVRVDNGGSRLKITLEVC (disulfide 1-20 (inferred)) [SySA-75] | > 256 | > 256 | 2.18 | – |
| CLRVRVNDRGSGVKITVEVC (disulfide 1-20 (inferred)) [SySA-39] | > 256 | > 256 | 0.28 | – |
| CLRVRVNNRRSGVRVTLEVC (disulfide 1-20 (inferred)) [SySA-67] | > 256 | > 256 | 0.70 | – |
| CLTIRVDNRGSRVRITLEVC (disulfide 1-20 (inferred)) [SySA-70] | > 256 | > 256 | 0.92 | – |
| CLTIRVNNRRGRVRISVQVC (disulfide 1-20 (inferred)) [SySA-15] | > 256 | > 256 | 0.80 | – |
| CLTVRLDNRGRGLKISVEVC (disulfide 1-20 (inferred)) [SySA-60] | > 256 | > 256 | 0.53 | – |
| CLTVRLDNRGSGLRITVEVC (disulfide 1-20 (inferred)) [SySA-44] | > 256 | > 256 | -0.0761 | – |
| CLTVRLNNRGGGVKISVEVC (disulfide 1-20 (inferred)) [SySA-59] | > 256 | > 256 | 0.32 | – |
| CLTVRVDNRGSRLKVTVEVC (disulfide 1-20 (inferred)) [SySA-55] | > 256 | > 256 | -0.10 | – |

| Compound | Ec W3110 MIC MH (Escherichia coli W3110) [µg/mL] | Ec W3110 MIC RPMI (Escherichia coli W3110) [µg/mL] | hemolysis [1] [%] | other results |
| --- | --- | --- | --- | --- |
| CLTVRVNNRGSGVKVSLEVC (disulfide 1-20 (inferred)) [SySA-54] | > 256 | > 256 | 1.51 | – |
| CLTVRVNNRRSGVRVSVQVC (disulfide 1-20 (inferred)) [SySA-43] | > 256 | > 256 | 0.11 | – |
| CRIKIDVDNRRRTLKLQLEC (disulfide 1-20 (inferred)) [SySA-74] | > 256 | > 256 | 0.72 | – |
| CRIKVDINNRSGRVKLQVQC (disulfide 1-20 (inferred)) [SySA-20] | > 256 | > 256 | 0.42 | – |
| CRIRIDIDNRGRTVRLEVQC (disulfide 1-20 (inferred)) [SySA-28] | > 256 | > 256 | 0.0423 | – |
| CRIRIDVNNGSGRLKLQLEC (disulfide 1-20 (inferred)) [SySA-21] | > 256 | > 256 | 0.42 | – |
| CRIRIDVNNRSGTLKLQVQC (disulfide 1-20 (inferred)) [SySA-36] | > 256 | > 256 | -0.0122 | – |
| CRIRINIDNRSGTVRLEVQC (disulfide 1-20 (inferred)) [SySA-3] | > 256 | > 256 | 0.24 | – |
| CRIRININNRRGRLKLQVEC (disulfide 1-20 (inferred)) [SySA-76] | > 256 | > 256 | 0.27 | – |
| CRIRINVNNGSGRVRLELEC (disulfide 1-20 (inferred)) [SySA-77] | > 256 | > 256 | 0.32 | – |
| CRIRINVNNRGRTLKLEVQC (disulfide 1-20 (inferred)) [SySA-10] | > 256 | > 256 | 0.40 | – |
| CRIRVNINNRRRTLRLEVEC (disulfide 1-20 (inferred)) [SySA-35] | > 256 | > 256 | 0.12 | – |
| CRVKINIDNRSRRVKLQVQC (disulfide 1-20 (inferred)) [SySA-6] | > 256 | > 256 | 0.66 | – |
| CRVKINVDNRSGRVKLELQC (disulfide 1-20 (inferred)) [SySA-69] | > 256 | > 256 | 0.72 | – |
| CRVKINVNNRGRTLKLELEC (disulfide 1-20 (inferred)) [SySA-58] | > 256 | > 256 | 0.000315 | – |
| CRVKVNINNGSRRLRLQVQC (disulfide 1-20 (inferred)) [SySA-50] | > 256 | > 256 | 0.34 | – |
